# In patent US20170059573A1, “METHOD OF DETECTING PEROXYNITRITE USING A COMPLEX OF A SACCHARIDE AND AN ARYLBORONATE-BASED FLUORESCENT PROBE” (UNIVERSITY OF BATH, priority 2014, published 2017):
# Assays:
# [1] = UV-Vis absorption spectra; type: physicochemical
# Method: While the presence of ONOO^− (100 μM), a new peak (A=0.021) at 360 nm developed due to the formation of phenol.
# [2] = Fluorescence response to D-fructose binding; conditions: probe 2 μM; D-fructose 100 mM; pH 7.3 buffer
# Method: (a) Fluorescence spectra of probe 1 (2 μM) and then addition of D-fructose (100 mM). After addition of D-fructose, the mixtures were stirred for 10 min; (b) Probe 1-D-fructose complex (probe 1, 2 μM; D-fructose, 100 mM) in different concentration of ONOO^−. After addition of peroxynitrite, the mixtures were stirred for 5 min;
# The saccharide-boronic acid complexes were formed by mixing free boronic acid (2 μM) with D-fructose (100 mM) for 10 min in situ.
# In the case of probe 1, a significant “off-on” signal response is seen on binding with D-fructose due to an inhibition of PET mechanism. From FIG. 3a, the maximum fluorescence intensity of probe 1 (2 μM, λem=525 nm) is increased two-fold in the presence of D-fructose (100 mM) at pH 7.3 buffer solution.
# [3] = Fluorescence response to hydrogen peroxide
# Method: The pH was adjusted from 7.30 to 8.10 using aqueous sodium hydroxide (10 N); (b) Fluorescence spectra of probe 1-D-fructose complex (probe 1, 2 μM; D-fructose, 100 mM) in the presence of hydrogen peroxide (1 mM) at pH 7.3 buffer solution. The spectra were collected at increasing reaction times with excitation at 410 nm (Ex slit: 5.0, Em slit: 5.0);
# The concentration of hydrogen peroxide (H2O2) was determined from the absorption at 240 nm (ε=43.6 M^−1 cm^−1).
# Since boronate-based derivatives can be oxidized to phenol by H2O2 and ONOO^−, it is important to discriminate them by fluorescence tools. Independently, the present inventors tested the responses of probe 1 and 1-D-fructose complex towards hydrogen peroxide (FIG. 7). With the free boronic acid system, the fluorescence of probe 1 (2 μM) increased to F/F0=ca. 1.59 in the presence of hydrogen peroxide (100 μM) over 1 h at pH 7.30 buffer solution. When the solution was adjusted to pH 8.10, the fluorescence decreased most probably due to the decomposition of the intermediate to phenol (FIG. 7a). This is different from the process observed for the detection of ONOO^− in which boronic acid was transformed into phenol quickly and directly.
# The fluorescence reaction of 1-D-fructose complex towards ONOO^− amd H2O2 at pH 5.0 buffer solution in order to mimic the acidic conditions found in cancer cells (FS5) was also studied. […]
# [4] = Fluorescence titration with peroxynitrite; conditions: saccharide free probe 2 μM; peroxynitrite 60 μM; pH 7.3 PBS
# [5] = pH titration of fluorescence intensity; type: physicochemical; conditions: probe 2 μM
# Method: As shown by FIG. 2, the fluorescence intensity of the probe 1 decreased at pH values above 8.0. […] Thus, the probe can be expected to work well under physiological conditions (pH 7.30, PBS buffer). In the presence of D-fructose (100 mM), the fluorescence of the formed 1-D-fructose complex increases due to the enhanced N—B interaction at different pH values. The fluorescence of 1-D-fructose complex decreases over a pH range of 3-11.
structure (smiles),measurement,setting,value
CN(CCNc1ccc2c3c(cccc13)C(=O)N(CCOCCO)C2=O)Cc1ccccc1B(O)O [probe 1],maximum absorption A at 440 nm,[1]; free boronic acid probe 2 μM,0.026
same,absorption A of new peak at 360 nm,[1]; in presence of ONOO− 100 μM,0.021
same,absorption A at the maximum absorption wavelength,[1]; probe 2 μM with D-fructose 100 mM,0.019
same,increase of maximum fluorescence intensity (λem=525 nm) in presence of D-fructose,[2],two-fold
same,F/F0,"[3]; free boronic acid probe 2 μM, hydrogen peroxide 100 μM over 1 h, pH 7.30 buffer",ca. 1.59
same,fluorescence after adjusting the solution to pH 8.10,"[3]; probe 2 μM after H2O2 100 μM, pH adjusted from 7.30 to 8.10",decreased
same,F/F0,[4],ca. 0.10
same,pH effect on fluorescence intensity,[5]; pH range between 3.0 and 8.0,minimal effect
same,pH effect on fluorescence intensity,[5]; pH values above 8.0,decreased
